Earlier results as cited in PMC10895697 (JAC-Antimicrobial Resistance, 2024).
≈ marks a conversion by molar mass, not a printed value.

How the values were obtained:
[1] = test system: S. aureus in osteoblasts; design: method as in PMID 34423360; conditions: at 100x its MIC; cited from earlier work
[2] = test system: S. aureus; design: method as in ref 11 (Chauvelot et al.); conditions: ref 11 (Chauvelot et al.); cited from earlier work

## CN[C@H]1C(=O)N[C@@H]2Cc3ccc(cc3)Oc3cc4cc(c3O[C@@H]3O[C@H](C(=O)O)[C@@H](O)[C@H](O)[C@H]3NC(=O)CCCCCCCCC(C)C)Oc3ccc(cc3Cl)[C@@H](O)[C@@H]3NC(=O)[C@H](NC(=O)[C@@H]4NC(=O)[C@@H](NC2=O)c2cc(cc(O)c2Cl)Oc2cc1ccc2O)c1ccc(O)c(c1)-c1c(O[C@H]2O[C@H](CO)[C@@H](O)[C@H](O)[C@@H]2O)cc(O)cc1[C@@H](C(=O)NCCCN(C)C)NC3=O [dalbavancin]
[1]
  peak of reduction of S. aureus in osteoblasts: 51.6%
[2]
  MIC: 0.125 µg/mL (≈ 0.0688 µM)
